Literature values, collected in patent EP0527942B1, “COLONIC DRUG DELIVERY SYSTEM” (Perio Products Limited, priority 1990, dated 1991).

System: morphine-dependent rats
Details: for time to diarrhea, withdrawal behavior and tail skin temperature response: oral administration

For `C=C1CC[C@@]2(O)[C@H]3Cc4ccc(O)c5c4[C@@]2(CCN3CC2CC2)[C@H]1O5` [nalmefene], the “time to diarrhea, withdrawal behavior and tail skin temperature response” value is listed as at most 15 min.

In the case of `C=CCN1CC[C@]23c4c5ccc(O)c4O[C@H]2C(=O)CC[C@@]3(O)[C@H]1C5` [naloxone], the “time to diarrhea, withdrawal behavior and tail skin temperature response” value is listed as at most 15 min.

For nalmefene glucuronide, the time to diarrhea (direct colonic administration) is given as 5 to 8 min and the “activity when administered subcutaneously” value (subcutaneous administration) is given as “inactive”.
